HELM strings list units from the 5' end as sugar, base in round brackets, then linkage (d deoxyribose, r ribose, m 2'-O-methyl, p phosphodiester). Strings are as the collection lists them; they lack the last nucleoside at the 3' end of the tested compound. [moe] = 2'-O-(2-methoxyethyl) (MOE); [sp] = phosphorothioate linkage; [m5C] = 5-methylcytosine
Target: ATXN2
Experiment: mouse, dose not given
Details: ASO

Substance | 3 h FOB score
RNA1{[moe](G)[sp].[moe](T)p.[moe](G)p.[moe](A)p.[moe](G)p.d(T)[sp].d(T)[sp].d([m5C])[sp].d(A)[sp].d([m5C])[sp].d([m5C])[sp].d(T)[sp].d(G)[sp].d([m5C])[sp].d(A)[sp].[moe](T)p.[moe]([m5C])p.[moe]([m5C])[sp].[moe]([m5C])}$$$$ (last 3' nucleoside missing) | 2.25 score 0-7
RNA1{[moe](G)[sp].[moe](T)p.[moe](G)p.[moe](A)p.[moe](T)p.[moe](G)p.d(T)[sp].d(T)[sp].d(T)[sp].d([m5C])[sp].d(A)[sp].d(T)[sp].d(T)[sp].d(G)[sp].d(G)[sp].d(G)[sp].[moe](T)p.[moe](T)[sp].[moe](T)}$$$$ (last 3' nucleoside missing) | 4 score 0-7
RNA1{[moe](G)[sp].[moe](T)p.[moe](G)p.[moe](A)p.[moe](T)p.d(G)[sp].d(T)[sp].d(T)[sp].d(T)[sp].d([m5C])[sp].d(A)[sp].d(T)[sp].d(T)[sp].d(G)[sp].d(G)[sp].[moe](G)p.[moe](T)p.[moe](T)[sp].[moe](T)}$$$$ (last 3' nucleoside missing) | 4.5 score 0-7
RNA1{[moe](G)[sp].[moe](T)p.[moe](G)p.[moe](A)p.d(T)[sp].d(G)[sp].d(T)[sp].d(T)[sp].d(T)[sp].d([m5C])[sp].d(A)[sp].d(T)[sp].d(T)[sp].d(G)[sp].[moe](G)p.[moe](G)p.[moe](T)p.[moe](T)[sp].[moe](T)}$$$$ (last 3' nucleoside missing) | 6 score 0-7
RNA1{[moe](G)[sp].[moe](T)p.[moe](G)p.[moe](G)p.[moe](T)[sp].d(G)[sp].d(T)[sp].d(G)[sp].d([m5C])[sp].d(G)[sp].d([m5C])[sp].d(A)[sp].d(T)[sp].[moe](G)p.[moe](T)p.[moe](A)[sp].[moe](G)}$$$$ (last 3' nucleoside missing) | 6.75 score 0-7
RNA1{[moe](G)[sp].[moe](T)p.[moe](G)p.[moe](G)p.[moe](T)p.d(G)[sp].d(G)[sp].d(T)[sp].d(G)[sp].d(T)[sp].d(G)[sp].d([m5C])[sp].d(G)[sp].d([m5C])[sp].d(A)[sp].[moe](T)p.[moe](G)p.[moe](T)[sp].[moe](A)}$$$$ (last 3' nucleoside missing) | 7 score 0-7
RNA1{[moe](G)[sp].[moe](T)p.[moe](G)p.[moe](G)p.[moe](T)p.d(G)[sp].d(T)[sp].d(G)[sp].d([m5C])[sp].d(G)[sp].d([m5C])[sp].d(A)[sp].d(T)[sp].d(G)[sp].d(T)[sp].[moe](A)p.[moe](G)p.[moe](A)[sp].[moe]([m5C])}$$$$ (last 3' nucleoside missing) | 5.5 score 0-7
RNA1{[moe](G)[sp].[moe](T)p.[moe](G)p.[moe](G)p.[moe]([m5C])p.d(T)[sp].d(T)[sp].d(T)[sp].d(A)[sp].d(A)[sp].d(A)[sp].d(A)[sp].d(A)[sp].d([m5C])[sp].d(T)[sp].[moe](A)p.[moe](G)p.[moe](G)[sp].[moe](T)}$$$$ (last 3' nucleoside missing) | 0 score 0-7
RNA1{[moe](G)[sp].[moe](T)p.[moe](G)p.[moe](T)p.[moe](T)p.d(G)[sp].d([m5C])[sp].d(A)[sp].d([m5C])[sp].d(A)[sp].d(T)[sp].d(A)[sp].d(G)[sp].d(G)[sp].d(T)[sp].[moe](T)p.[moe](A)p.[moe](G)[sp].[moe](A)}$$$$ (last 3' nucleoside missing) | 6.5 score 0-7
RNA1{[moe](G)[sp].[moe](T)p.[moe](G)p.[moe](T)p.[moe](T)p.d(T)[sp].d(A)[sp].d(A)[sp].d(T)[sp].d(T)[sp].d(T)[sp].d(G)[sp].d(T)[sp].d(A)[sp].d(A)[sp].[moe]([m5C])p.[moe](T)p.[moe](A)[sp].[moe](G)}$$$$ (last 3' nucleoside missing) | 4 score 0-7
RNA1{[moe](G)[sp].[moe](T)p.[moe](G)p.[moe](T)p.[moe](T)p.d(T)[sp].d(G)[sp].d(G)[sp].d(G)[sp].d(A)[sp].d(T)[sp].d(G)[sp].d([m5C])[sp].d(T)[sp].d(T)[sp].[moe]([m5C])p.[moe](A)p.[moe](G)[sp].[moe](A)}$$$$ (last 3' nucleoside missing) | 5.5 score 0-7
RNA1{[moe](G)[sp].[moe](T)p.[moe](G)p.[moe](T)p.[moe](T)p.d([m5C])[sp].d(A)[sp].d(G)[sp].d(T)[sp].d(A)[sp].d(T)[sp].d(A)[sp].d(G)[sp].d(A)[sp].d(T)[sp].[moe](T)p.[moe](A)p.[moe](T)[sp].[moe]([m5C])}$$$$ (last 3' nucleoside missing) | 3.75 score 0-7
RNA1{[moe](G)[sp].[moe](T)p.[moe](G)p.[moe](T)p.[moe](T)p.d([m5C])[sp].d(A)[sp].d(T)[sp].d(G)[sp].d(A)[sp].d([m5C])[sp].d(T)[sp].d(T)[sp].d(T)[sp].d([m5C])[sp].[moe](A)p.[moe](A)p.[moe](G)[sp].[moe](G)}$$$$ (last 3' nucleoside missing) | 3.5 score 0-7
RNA1{[moe](G)[sp].[moe](T)p.[moe](T)p.[moe](A)p.[moe]([m5C])[sp].d(T)[sp].d(G)[sp].d(T)[sp].d(T)[sp].d(T)[sp].d([m5C])[sp].d(G)[sp].d(A)[sp].[moe]([m5C])p.[moe]([m5C])p.[moe](T)[sp].[moe]([m5C])}$$$$ (last 3' nucleoside missing) | 6 score 0-7
RNA1{[moe](G)[sp].[moe](T)p.[moe](T)p.[moe](A)p.[moe]([m5C])p.[moe](T)p.d(G)[sp].d(T)[sp].d(T)[sp].d(T)[sp].d([m5C])[sp].d(G)[sp].d(A)[sp].d([m5C])[sp].d([m5C])[sp].d(T)[sp].[moe]([m5C])p.[moe](T)[sp].[moe](G)}$$$$ (last 3' nucleoside missing) | 5 score 0-7
RNA1{[moe](G)[sp].[moe](T)p.[moe](T)p.[moe](A)p.[moe]([m5C])p.d(T)[sp].d(G)[sp].d(T)[sp].d(T)[sp].d(T)[sp].d([m5C])[sp].d(G)[sp].d(A)[sp].d([m5C])[sp].d([m5C])[sp].[moe](T)p.[moe]([m5C])p.[moe](G)[sp].[moe](G)}$$$$ (last 3' nucleoside missing) | 4.5 score 0-7
RNA1{[moe](G)[sp].[moe](T)p.[moe](T)p.[moe](A)p.[moe]([m5C])p.d(T)[sp].d(G)[sp].d(T)[sp].d(T)[sp].d(T)[sp].d([m5C])[sp].d(G)[sp].d(A)[sp].d([m5C])[sp].d([m5C])[sp].[moe](T)p.[moe]([m5C])p.[moe](T)[sp].[moe](G)}$$$$ (last 3' nucleoside missing) | 6.5 score 0-7
RNA1{[moe](G)[sp].[moe](T)p.[moe](T)p.[moe](A)p.d([m5C])[sp].d(T)[sp].d(G)[sp].d(T)[sp].d(T)[sp].d(T)[sp].d([m5C])[sp].d(G)[sp].d(A)[sp].d([m5C])[sp].[moe]([m5C])p.[moe](T)p.[moe]([m5C])p.[moe](T)[sp].[moe](G)}$$$$ (last 3' nucleoside missing) | 6.5 score 0-7
RNA1{[moe](G)[sp].[moe](T)p.[moe](T)p.[moe](G)p.[moe](T)p.d(T)[sp].d(G)[sp].d(T)[sp].d(T)[sp].d(T)[sp].d(A)[sp].d([m5C])[sp].d(A)[sp].d(T)[sp].d(T)[sp].[moe](A)p.[moe](T)p.[moe](T)[sp].[moe](A)}$$$$ (last 3' nucleoside missing) | 0 score 0-7
RNA1{[moe](G)[sp].[moe](T)p.[moe](T)p.[moe](G)p.[moe]([m5C])p.d(A)[sp].d([m5C])[sp].d(A)[sp].d(T)[sp].d(A)[sp].d(G)[sp].d(G)[sp].d(T)[sp].d(T)[sp].d(A)[sp].[moe](G)p.[moe](A)p.[moe](A)[sp].[moe](T)}$$$$ (last 3' nucleoside missing) | 6 score 0-7
RNA1{[moe](G)[sp].[moe](T)p.[moe](T)p.[moe](T)p.[moe](A)p.d(A)[sp].d(T)[sp].d(T)[sp].d(T)[sp].d(G)[sp].d(T)[sp].d(A)[sp].d(A)[sp].d([m5C])[sp].d(T)[sp].[moe](A)p.[moe](G)p.[moe](G)[sp].[moe](T)}$$$$ (last 3' nucleoside missing) | 3.5 score 0-7
RNA1{[moe](G)[sp].[moe](T)p.[moe](T)p.[moe](T)p.[moe](G)p.d(G)[sp].d(A)[sp].d(A)[sp].d(T)[sp].d([m5C])[sp].d(T)[sp].d(T)[sp].d(A)[sp].d(T)[sp].d(T)[sp].[moe](A)p.[moe](A)p.[moe](G)[sp].[moe]([m5C])}$$$$ (last 3' nucleoside missing) | 1 score 0-7
RNA1{[moe](G)[sp].[moe](T)p.[moe](T)p.[moe](T)p.[moe](T)p.d(G)[sp].d(T)[sp].d(T)[sp].d(T)[sp].d(A)[sp].d(A)[sp].d(T)[sp].d([m5C])[sp].d(A)[sp].d([m5C])[sp].[moe](A)p.[moe](G)p.[moe](T)[sp].[moe](T)}$$$$ (last 3' nucleoside missing) | 2 score 0-7
RNA1{[moe](G)[sp].[moe](T)p.[moe](T)p.[moe]([m5C])p.[moe](A)p.d(A)[sp].d(A)[sp].d(T)[sp].d(T)[sp].d([m5C])[sp].d([m5C])[sp].d(G)[sp].d(G)[sp].d([m5C])[sp].d(T)[sp].[moe]([m5C])p.[moe]([m5C])p.[moe](A)[sp].[moe](T)}$$$$ (last 3' nucleoside missing) | 5.25 score 0-7
RNA1{[moe](G)[sp].[moe](T)p.[moe](T)p.[moe]([m5C])p.[moe](A)p.d(T)[sp].d(G)[sp].d(A)[sp].d([m5C])[sp].d(T)[sp].d(T)[sp].d(T)[sp].d([m5C])[sp].d(A)[sp].d(A)[sp].[moe](G)p.[moe](G)p.[moe](G)[sp].[moe](T)}$$$$ (last 3' nucleoside missing) | 2 score 0-7
RNA1{[moe](G)[sp].[moe](T)p.[moe](T)p.[moe]([m5C])p.[moe](A)p.d(T)[sp].d(T)[sp].d([m5C])[sp].d([m5C])[sp].d(A)[sp].d(G)[sp].d(A)[sp].d(T)[sp].d(T)[sp].d(T)[sp].[moe]([m5C])p.[moe](A)p.[moe]([m5C])[sp].[moe](T)}$$$$ (last 3' nucleoside missing) | 4 score 0-7
RNA1{[moe](G)[sp].[moe](T)p.[moe](T)p.[moe]([m5C])p.[moe](A)p.d(T)[sp].d([m5C])[sp].d(T)[sp].d(T)[sp].d(T)[sp].d(T)[sp].d([m5C])[sp].d([m5C])[sp].d(T)[sp].d(T)[sp].[moe]([m5C])p.[moe](A)p.[moe](G)[sp].[moe](A)}$$$$ (last 3' nucleoside missing) | 0 score 0-7

— the OligoGym collection
